From patent US4130647A, “Methods for treating congestive heart failure and ischemic heart disease” (priority 1977, dated 1978)
Several values for one entry are separate records, joined by “and”; a condition that tells them apart may be missing. Equal values may be shown once.

How the values were obtained:
[1] = tested on: patients with congestive heart failure; assay: Hemodynamic effects of oral trimazosin in congestive heart failure (Example 2); type: in vivo, human
Procedure: Studies were performed in male patients with clinical and radiographic evidence of congestive heart failure due to ischemic or primary cardiomyopathy. To be eligible for the study patients had to have supine systolic blood pressure of at least 100 mm. Hg. and a supine resting cardiac index below 2.5 L/min./m^2, as measured by the non-invasive carbon dioxide rebreathing method [Franciosa, et al., J. Lab. Clin. Med., 88, 662 (1976) and Franciosa, et al., Circulation, 55, 449 (1977)]. Six patients met these criteria and were selected for the study.
After obtaining written informed consent, patients were entered into a 2 day dose finding period during which single daily doses of trimazosin were given and blood pressure and heart rate monitored for 4 hours. On day one 100 mg. was given; if no response or side effects occurred, 200 mg. was given the next day. For purposes of this study a response was defined as a fall in supine blood pressure to a level equal to 0.2 × control systolic pressure +76 mm. Hg. This formula was arbitrarily chosen so that patients with control systolic blood pressure as low as 100 mm. Hg. would be included, and their pressures could be reduced to 96 mm. Hg. Upon completion to the dose finding period, no trimazosin was given for the next 24 hours to allow for washout of previous doses. After this, hemodynamic studies were performed employing the predetermined doses; if 200 mg. of trimazosin was ineffective, 300 mg. was given for hemodynamic studies.
On the day of hemodynamic studies, diuretics and other vasodilators were withheld but maintenance digitalis doses were given in order to obtain a reasonably steady hemodynamic state. Procainamide was given to the one patient who had been taking it chronically. Right heart catheterization was performed using a triple lumen Swan-Ganz catheter which was inserted percutaneously via an antecubital or femoral vein and positioned with its tip in the pulmonary artery and the proximal lumen in the right atrium [Swan, et al,. N. Engl. J. Med., 283, 447 (1970)]. A brachial artery was cannulated with a short teflon catheter inserted over an 18-guage thin walled needle. Catheters were connected to P23Db Statham pressure transducers and pressures recorded on a Hewlett-Packard multichannel physiological recorder. Transducers were positioned at the mid-chest level with the patient supine, and all measurements were made in this position. Heart rate was monitored from the electrocardiogram. Cardiac outputs were measured by the dye-dilution method using indocyanine green injected into the pulmonary artery and sampled from the brachial artery through a Gilford densitometer connected to the recorder. Forearm venous capacitance was measured by occlusion plethysmography employing a Whitney mercury-in-rubber resistance guage [Cohen, et al., Clin. Sci., 30, 267 (1966) and Mason, et al., Circulation, 32, 756 (1965)]. For this determination, the forearm was elevated and suspended in a cradle. The venous occluding cuff was inflated to 30 mm. Hg. and forearm girth allowed to equilibrate over 2-3 minutes. The change in forearm girth at this point was taken as a measure of venous capacitance.
Hemodynamic measurements were made before and at hourly intervals for 4 hours after administration of trimazosin. Pulmonary wedge pressure was taken as occluded pulmonary arterial pressure or pulmonary arterial diastolic pressure. These were not interchanged and only one was used in any given patient. Systemic vascular resistance was calculated as the difference between means systemic arterial and right atrial pressures divided by cardiac output. Pulmonary vascular resistance was calculated as mean pulmonary arterial pressure divided by cardiac output. […]

[2] = tested on: patients with chronic left sided congestive heart failure; assay: Adverse effects of trimazosin (Example 3); type: in vivo, human
Procedure: The patients then received in a double-blind, randomized study trimazosin or placebo for six weeks. Eight patients received one placebo capsule three times daily for weeks one and two, two placebo capsules three times daily for weeks three and four, and three placebo capsules three times daily for weeks five and six of the double-blind period. Seven patients received one 50 mg. trimazosin capsule three times daily for weeks one and two, two 50 mg. trimazosin capsules three times daily for weeks three and four, and three 50 mg. trimazosin capsules three times daily for weeks five and six of the double-blind period. One patient (patient number five on trimazosin) received one 50 mg. trimazosin capsule three times daily for 32 days. […] The patients were seen by one of the investigators, questioned for symptoms, and given a physical examination in the baseline period, at the end of two weeks of single-blind placebo, and at the end of weeks one, two, three, four, five, and six on double-blind medication. A standard 12-lead electrocardiogram and PA and lateral chest roentgenograms were taken in the baseline period, at the end of two weeks of single-blind placebo, and at the end of three weeks and six weeks on double-blind medication.

[3] = 2 hours after trimazosin, individual patients

COc1cc2c(N)nc(N3CCN(C(=O)OCC(C)(C)O)CC3)nc2c(OC)c1OC [trimazosin, 2-hydroxy-2-methylpropyl 4-(4-amino-6,7,8-trimethoxy-2-quinazolinyl)-1-piperazinecarboxylate]
cardiac index, patients not responding ([1]; 2 hours after trimazosin): failed to increase in 2 patients | pulmonary arterial pressures, patients responding ([1]; 2 hours after trimazosin): fell in every patient | Cardiac Index [1, 3]: 1.86 L/min./m^2 and 1.14 L/min./m^2 and 2.36 L/min./m^2 and 1.74 L/min./m^2 and 2.96 L/min./m^2 and 2.67 L/min./m^2 | Mean Pulmonary Arterial Pressure [1, 3]: 15 mm.Hg. and 39 mm.Hg. and 29 mm.Hg. and 49 mm.Hg. and 31 mm.Hg. and 40 mm.Hg. | Mean Systemic Arterial Pressure [1, 3]: 82 mm.Hg. and 78 mm.Hg. and 88 mm.Hg. and 87 mm.Hg. and 73 mm.Hg. | Pulmonary Vascular Resistance [1, 3]: 4 units and 18 units and 6 units and 15 units and 8 units | Pulmonary Wedge Pressure [1, 3]: 3 mm.Hg. and 28 mm.Hg. and 23 mm.Hg. and 37 mm.Hg. and 18 mm.Hg. and 34 mm.Hg. | Systemic Vascular Resistance [1, 3]: 23 units and 31 units and 16 units and 24 units and 15 units and 12 units | Heart Rate, mean ([1]; 2 hours after trimazosin, mean dose 183.3 mg., control 88.0, ns): 85.0 beats/min. | right atrial pressure ([1]; 2 hours after trimazosin, before 11.3 ± 2.1): 8.7 ± 1.6 mm. Hg. | Cardiac Index, mean ([1]; 2 hours after trimazosin, control 1.76, ns): 2.12 L/min./m^2 | Pulmonary Vascular Resistance, mean ([1]; 2 hours after trimazosin, control 15.8, P <0.05): 9.5 units | Systemic Vascular Resistance, mean ([1]; 2 hours after trimazosin, control 27.3, ns): 20.2 units | Pulmonary Wedge Pressure, mean ([1]; 2 hours after trimazosin, control 30.7, P <0.01): 23.8 mm.Hg. | Mean Pulmonary Arterial Pressure, mean ([1]; 2 hours after trimazosin, control 40.7, P <0.01): 33.8 mm.Hg. | Mean Systemic Arterial Pressure, mean ([1]; 2 hours after trimazosin, control 91.2, P <0.05): 82.5 mm.Hg. | pulmonary wedge pressure persistence ([1]; 4 hours after trimazosin): still significantly below control at 4 hours | Heart Rate ([1]; T = 2 hours after trimazosin (100-300 mg.), individual patients): 96 beats/min. and 84 beats/min. and 75 beats/min. and 81 beats/min. and 78 beats/min. | left ventricular function curve shift upward and leftward ([1]; after trimazosin): Only one patient failed to shift their left ventricular function curve upward and leftward | stroke volume ([1]; after trimazosin): stroke volume was increased | time of maximal increase of cardiac index ([1]; after trimazosin): 1 h | time of maximal reduction of pulmonary wedge pressure ([1]; after trimazosin): 2 h | time of peak decline of mean systemic arterial pressure ([1]; after trimazosin): 1.5 h | time of peak effects of the various hemodynamic parameters ([1]; after trimazosin): 1 to 3 h | diastolic pressure at peak effect ([1]; after trimazosin, control 74.8 ± 4.2, ns): 67.0 ± 2.9 mm. Hg. | systolic arterial pressure at peak effect ([1]; after trimazosin, control 128.3, p<0.05): 116.8 ± 9.2 mm. Hg. | heart rate change ([1]; following trimazosin): the decrease achieved statistical significance | right atrial pressure and forearm veins, patients responding ([1]; following trimazosin): Right atrial pressure fell and forearm veins dilated in every patient | right atrial pressure ([1]; one patient with normal pulmonary wedge pressure, fell from 5): 3 mm. Hg. | tachycardia ([1]; patients with congestive heart failure): did not produce tachycardia | cardiac output ([1]; patients with normal control cardiac output or normal control pulmonary wedge pressure): appeared to reduce cardiac output | adverse effects attributed to medication ([2]; 16 patients (trimazosin or placebo)): No adverse effects attributed to medication occurred in any of the 16 patients | adverse effects such as systemic lupus erythematosus ([2]; in vivo): has not been associated with adverse effects such as systemic lupus erythematosus | reflex tachycardia ([2]; in vivo): does not produce a reflex tachycardia | event in patient number five ([2]; thirty-second day of trimazosin therapy): acute myocardial infarction with ventricular fibrillation | side effects ([2]; trimazosin 450 mg. daily): without occurrence of any side effects
